Series [1] addresses T1, Mitogen-activated protein kinase 14 (Homo sapiens, UniProt Q16539). The series can be described thus: Inhibition of TNF alpha release in THP1 cells. It is filed as functional, cell-based, THP-1.
Series [2] in a line: Volume of distribution in rat. It counts as ADME, organism-based. To be noted: in vivo, read-out: Vdss.
Series [3] in a line: Plasma clearance in rhesus monkey. It counts as ADME, organism-based, Macaca mulatta.
Series [4] can be described thus: Half life in rat, iv. It counts as ADME, organism-based. To be noted: in vivo.
Series [5] is described as follows: Plasma clearance in rat. It is filed as ADME, organism-based.
Series [6] deals with T1, Mitogen-activated protein kinase 14. In words: Inhibition of P38 alpha MAPK.
Series [7] has the same target. The series can be described thus: Inhibition of LPS stimulated TNF alpha release in whole blood. It counts as functional, tissue-based.
A short description of series [8]: Half life in rhesus monkey, iv. It counts as ADME, organism-based, Macaca mulatta. To be noted: in vivo.
The nature of series [9]: Oral bioavailability in rhesus monkey. To be noted: in vivo. It is filed as ADME, organism-based, Macaca mulatta.
Series [10] in a line: Oral bioavailability in rat. It is filed as ADME, organism-based. Conditions: in vivo.
The nature of series [11]: Volume of distribution in rhesus monkey. It counts as ADME, organism-based, Macaca mulatta. To be noted: in vivo, read-out: Vdss.
A short description of series [12]: Plasma clearance in dog. It counts as ADME, organism-based, Canis lupus familiaris.
The nature of series [13]: Half life in dog, iv. To be noted: in vivo. It counts as ADME, organism-based, Canis lupus familiaris.
Series [14] in a line: Volume of distribution in dog. Conditions: in vivo, read-out: Vdss. It is filed as ADME, organism-based, Canis lupus familiaris.
The nature of series [15]: Oral bioavailability in dog. It counts as ADME, organism-based, Canis lupus familiaris. Conditions: in vivo.

T1 sequence (Q16539 whole entry): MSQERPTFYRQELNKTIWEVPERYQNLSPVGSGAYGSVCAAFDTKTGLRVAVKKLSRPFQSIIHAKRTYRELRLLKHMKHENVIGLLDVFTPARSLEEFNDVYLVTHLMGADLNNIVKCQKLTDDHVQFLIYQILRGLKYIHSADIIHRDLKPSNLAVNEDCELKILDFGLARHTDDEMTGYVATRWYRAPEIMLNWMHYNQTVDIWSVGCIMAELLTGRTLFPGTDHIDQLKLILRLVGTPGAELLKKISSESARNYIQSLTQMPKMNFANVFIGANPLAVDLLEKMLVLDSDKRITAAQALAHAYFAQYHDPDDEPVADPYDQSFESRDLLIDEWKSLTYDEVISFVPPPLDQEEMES

`CC(C)(C)N1CCC(c2cc3c(ccc(=O)n3-c3c(Cl)cccc3Cl)c(-c3ccc(F)cc3Cl)n2)CC1`: the IC50 in series [1] was determined as 1.6 nM; in series [6], 0.38 nM; in [7], 5.3 nM. In addition, the Vd was 11.4 L/kg in [2] and 22.1 L/kg in [11]. Also, the clearance came to 47.5 mL/min/kg in series [3] and 39.6 mL/min/kg in [5]. In addition, the half-life in series [4] was 3.69 h; in [8] it was 5.32 h. For the same compound, the bioavailability in series [9] amounted to 33%; in series [10] it was 67.3%.
`COC(=O)C(C)N1CCC(c2cc(-c3ccc(F)cc3Cl)c3ccc(=O)n(-c4c(Cl)cccc4Cl)c3c2)CC1` (stereo not given): the IC50 in series [1] was 1.3 nM; in [6], 8.1 nM; in [7], 28 nM.
For the compound `CC(C)(C)N1CCC(Oc2cc(-c3ccc(F)cc3F)c3ccc(=O)n(-c4c(Cl)cccc4Cl)c3c2)CC1`, the results for the IC50 in [1] and in series [6] were 0.77 nM and 1.87 nM, respectively.
Turning to `CC(C)(C)N1CCC(c2cc(-c3ccc(F)cc3Cl)c3ccc(=O)n(-c4c(F)cccc4F)c3c2)CC1`, the 50% inhibitory concentration (IC50) in series [1] was 0.42 nM; in [6] it was 0.3 nM; in [7], 1 nM. For the same compound, the Vd came to 3.77 L/kg in series [2] and 28.6 L/kg in series [11]. Also, the clearance in [3] came out at 35.1 mL/min/kg; in series [5], 18.5 mL/min/kg. For the same compound, the half-life was 9.96 h in [4] and 9.55 h in series [8]. Further, the bioavailability in series [9] worked out at 31.5%; in series [10] it was 57%.
Turning to `C[C@@H](C(=O)O)N1CCC(c2cc(-c3ccc(F)cc3Cl)c3ccc(=O)n(-c4c(Cl)cccc4Cl)c3c2)CC1`, the IC50 in [1] was 3.2 nM; in [6], 1.3 nM; in [7] it was 28 nM. The Vd in series [2] is 0.7 L/kg. This compound showed a half-life in series [4] of 0.44 h. The compound also displayed a clearance in series [5] of 59 mL/min/kg. The bioavailability in series [10] stood at 0.11%.
In the case of `CC(C)(C)N1CC=C(c2cc(-c3ccc(F)cc3Cl)c3ccc(=O)n(-c4c(Cl)cccc4Cl)c3c2)CC1`, the half-inhibitory concentration (IC50) came to 0.74 nM in series [1], 1.15 nM in series [6] and 50.8 nM in series [7].
Regarding `CC(C)(C)N1CCC(c2cc3c(ccc(=O)n3-c3c(Cl)cccc3Cl)c(-c3ccc(F)cc3F)n2)CC1`, the clearance in series [12] came to 20.5 mL/min/kg; in series [3] it was 41.5 mL/min/kg; in [5], 32.3 mL/min/kg. The IC50 in series [1] came to 0.69 nM; in series [6], 0.51 nM; in [7] it was 5.2 nM. Moreover, the Vd in [2] was determined as 24 L/kg; in series [14], 23.8 L/kg; in [11] it was 21.6 L/kg. In addition, the half-life in [4] was 9.05 h; in [13] it was 15.5 h; in series [8] it was 6.5 h. Also, the bioavailability in [9] worked out at 23%; in series [10], 62%; in [15], 99.3%.
For `COC(=O)C(C)(C)N1CCC(c2cc(-c3ccc(F)cc3Cl)c3ccc(=O)n(-c4c(Cl)cccc4Cl)c3c2)CC1`, the results for the IC50 in series [1], in [6] and in [7] were 2.59 nM, 6.7 nM and 130 nM, respectively.
Take `CC(C)(C)N1CCC(c2cc(-c3ccc(F)cc3F)c3ccc(=O)n(-c4c(Cl)cccc4Cl)c3c2)CC1`: the clearance in series [12] turned out to be 5.5 mL/min/kg; in series [3], 29.2 mL/min/kg; in series [5], 11.9 mL/min/kg. The results for the IC50 in series [1], in [6] and in series [7] were 1.7 nM, 0.14 nM and 2.4 nM, respectively. Besides, the Vd in [2] stood at 3.82 L/kg; in [14], 8.99 L/kg; in series [11], 26.2 L/kg. The half-life in series [4] was 4.13 h; in series [13], 19.8 h; in series [8] it was 9.7 h. Further, the bioavailability in [9] stood at 56.5%; in [10] it was 69.3%; in series [15] it was 36.2%.
Take `CC(C)(C)N1CCC(c2cc(-c3ccccc3Cl)c3ccc(=O)n(-c4c(Cl)cccc4Cl)c3c2)CC1`: the IC50 in series [1] turned out to be 1 nM; in series [6], 0.1 nM; in series [7] it was 6.4 nM.
For `O=c1ccc2c(-c3ccc(F)cc3Cl)cc(C3CC4CCC(C3)N4)cc2n1-c1c(Cl)cccc1Cl` (stereo not given), the IC50 is 0.89 nM in series [1], 0.45 nM in series [6] and 14.5 nM in [7]. Moreover, in [2], the Vd was found to be 6.2 L/kg. In series [4], this compound had a half-life of 2.56 h. The compound further registered a clearance in [5] of 37 mL/min/kg. Also, the bioavailability in series [10] was determined as 13%.
For `CC(C)(C)N1CCC(Oc2cc(-c3ccccc3Cl)c3ccc(=O)n(-c4c(Cl)cccc4Cl)c3c2)CC1`, the IC50 in series [1] is 1.8 nM; in [6], 1.6 nM; in [7], 13 nM. In addition, the Vd in [2] came to 6.17 L/kg. The same compound showed a half-life in [4] of 2.33 h. Further, in series [5], the clearance is 34.1 mL/min/kg. Moreover, the bioavailability in series [10] amounted to 32.3%.
As to `C[C@H](C(=O)O)N1CCC(c2cc(-c3ccc(F)cc3Cl)c3ccc(=O)n(-c4c(Cl)cccc4Cl)c3c2)CC1`, the half-maximal inhibitory concentration (IC50) in series [1] is 3.8 nM; in series [6], 3.2 nM; in series [7], 25 nM.
As to `CC(C)(C(=O)O)N1CCC(c2cc(-c3ccc(F)cc3Cl)c3ccc(=O)n(-c4c(Cl)cccc4Cl)c3c2)CC1`, the IC50 in [1] is 3.75 nM; in [6] it was 0.84 nM; in [7], 79.1 nM.
For `CN1C2CCC1CC(c1cc(-c3ccc(F)cc3Cl)c3ccc(=O)n(-c4c(Cl)cccc4Cl)c3c1)C2` (stereo not given), the IC50 in [1] is 0.82 nM; in [6] it was 0.61 nM; in [7], 7.71 nM. Further, the Vd in [2] came to 6.87 L/kg. Also, the half-life in series [4] is 3.12 h. In series [5], the clearance was found to be 27 mL/min/kg. Moreover, the bioavailability in series [10] was 30%.
In the case of `CC(C)(C)N1CCC(Oc2cc(-c3ccc(F)cc3F)c3ccc(=O)n(-c4c(F)cccc4F)c3c2)CC1`, the IC50 is 2.2 nM in [1], 10.5 nM in series [6] and 18.4 nM in series [7].
As for `CC1(C)C=C(c2cc(-c3ccc(F)cc3Cl)c3ccc(=O)n(-c4c(Cl)cccc4Cl)c3c2)CC(C)(C)N1`, the results for the half-maximal inhibitory concentration (IC50) in series [1], in series [6] and in [7] were 3.32 nM, 0.26 nM and 24.2 nM, respectively. Moreover, the Vd in [2] came out at 7.32 L/kg. In series [4], this compound gave a half-life of 3.17 h. This compound also returned a clearance in series [5] of 30.1 mL/min/kg. Also, the bioavailability in [10] was 36%.
As to `CC(C)N1C2CCC1CC(c1cc(-c3ccc(F)cc3Cl)c3ccc(=O)n(-c4c(Cl)cccc4Cl)c3c1)C2` (stereo not given), the IC50 in series [1] turned out to be 0.99 nM; in series [6] it was 0.51 nM; in series [7] it was 8.51 nM. In addition, the Vd in series [2] was determined as 5.23 L/kg. Besides, the half-life in [4] is 3.36 h. This compound came in with a clearance in series [5] of 18 mL/min/kg. The compound further registered a bioavailability in series [10] of 44%.
Regarding `CC(C)(C)N1CCC(Oc2cc(-c3ccc(F)cc3Cl)c3ccc(=O)n(-c4c(Cl)cccc4Cl)c3c2)CC1`, the IC50 is 2.4 nM in series [1], 7.1 nM in series [6] and 16.2 nM in [7].
Regarding `CC(C)(C)N1CCC(c2cc(-c3ccc(F)cc3Cl)c3ccc(=O)n(-c4c(Cl)cccc4Cl)c3c2)CC1`, the clearance in series [12] turned out to be 26.8 mL/min/kg; in [3], 52.9 mL/min/kg; in series [5], 14 mL/min/kg. Besides, the IC50 is 0.27 nM in series [1], 0.31 nM in series [6] and 2.6 nM in [7]. Moreover, the figures for the Vd in [2], in series [14] and in [11] were 3.84 L/kg, 23.8 L/kg and 52.8 L/kg, respectively. Further, the figures for the half-life in [4], in [13] and in series [8] were 3.5 h, 5.59 h and 13.6 h, respectively. Moreover, the bioavailability in series [9] was 49%; in series [10], 47.7%; in series [15], 83%.
Turning to `CC(C)(C)N1CCC(c2cc3c(ccc(=O)n3-c3c(Cl)cccc3Cl)c(-c3ccccc3Cl)n2)CC1`, the values for the clearance in series [12] and in series [5] were 37.6 mL/min/kg and 25 mL/min/kg, respectively. For the same compound, the Vd in series [2] came out at 10.1 L/kg; in [14], 15.1 L/kg. Besides, the half-life was 5.1 h in [4] and 5.42 h in series [13]. Further, the IC50 in [6] amounted to 1.4 nM; in [7] it was 6.8 nM. Further, the bioavailability came to 66% in [10] and 9.35% in series [15].

These data come from ChEMBL document CHEMBL1148534, “p38 MAP kinase inhibitors: metabolically stabilized piperidine-substituted quinolinones and naphthyridinones” (Bioorg Med Chem Lett, 2006).
